Results: ChEMBL document CHEMBL1158237, “Jineol, a Cytotoxic Alkaloid from the Centipede Scolopendra subspinipes” (1996)
Values after ≈ are worked out from the molar mass of the structure shown. Active and inactive are the calls of the source. The rule behind the calls is not given here.

How the values were obtained:
A549 = experiment: Cytotoxicity against human A549 cells by SRB assay; assay type: functional; conditions: read-out: ED50 (the source's name)
SK-OV-3 = experiment: Cytotoxicity against human SKOV3 cells by SRB assay; assay type: functional; conditions: read-out: ED50 (the source's name)
SK-MEL-2 = experiment: Cytotoxicity against human SK-MEL-2 cells by SRB assay; assay type: functional; conditions: read-out: ED50 (the source's name)
XF498 = experiment: Cytotoxicity against human XF498 cells by SRB assay; assay type: functional; conditions: read-out: ED50 (the source's name)
HCT-15 = experiment: Cytotoxicity against human HCT15 cells by SRB assay; assay type: functional; conditions: read-out: ED50 (the source's name)
[1] = system: Trichophyton mentagrophytes; experiment: Antifungal activity against Trichophyton mentagrophytes by agar diffusion assay; assay type: functional, organism-based

Structure (SMILES)	EC50 (A549) [µg/mL]	EC50 (SK-OV-3) [µg/mL]	EC50 (SK-MEL-2) [µg/mL]	EC50 (XF498) [µg/mL]	EC50 (HCT-15) [µg/mL]	Activity [1]
COc1cnc2c(OC)cccc2c1 [JINEOL METHYL ETHER]	38 (≈ 201 µM)	32 (≈ 169 µM)	21 (≈ 111 µM)	29 (≈ 153 µM)	42 (≈ 222 µM)	
CC(=O)Oc1cnc2c(OC(C)=O)cccc2c1 [JINEOL ACETATE]	8	14	11	12	8	
Oc1cnc2c(O)cccc2c1 [JINEOL]	5.8 (≈ 36 µM)	4.5 (≈ 27.9 µM)	5.6 (≈ 34.7 µM)	10 (≈ 62.1 µM)	1.9 (≈ 11.8 µM)	Active
COc1cccc2c1C(=O)c1c(O)c3c(c(O)c1C2=O)C[C@@](O)(C(=O)CO)C[C@@H]3O[C@H]1C[C@H](N)[C@H](O)[C@H](C)O1 [DOXORUBICIN]	0.05 (≈ 0.092 µM)	0.11 (≈ 0.202 µM)	0.05 (≈ 0.092 µM)	0.1 (≈ 0.184 µM)	1.8 (≈ 3.31 µM)	
